Source: US20100184596A1, “METHOD FOR THE CONTROL OF WEEDS IN TURF” (SYNGENTA CROP PROTECTION, INC., priority 2007, published 2010)

Tested on: turfgrass
Assay: Example B4, conclusion in words
Format: in vivo
Conditions: applied with Formula I
Procedure: The phytotoxicity to turfgrass of the compound of formula I in combination with various safeners was tested. The combinations were applied by post emergence spray application. Percentage phytotoxicity assessments were taken at various timepoints. The safeners tested in these trials were cloquintocet-mexyl, cyprosulfamide, a compound of formula 2.3, and isoxadifen-ethyl.

| SMILES | safener effectiveness, in words |
| --- | --- |
| CNC(=O)Nc1ccc(S(=O)(=O)NC(=O)c2ccccc2OC)cc1 [Formula 2.3] | particular effective safeners |
| COc1ccccc1C(=O)NS(=O)(=O)c1ccc(C(=O)NC2CC2)cc1 [cyprosulfamide] | particular effective safeners |
